These results are taken from publication PMC8079060 (Drug Delivery, 2021).

Several values for one entry are separate records, joined by “and”; a condition that tells them apart may be missing. Identical values can stand only once.

The nature of data set [1]: Plasma pharmacokinetics after intravenous administration. To be noted: rats; for Tmax: i.v. NPPA-PTX NPs 6.04 mg kg^−1 (equimolar with 5.00 mg kg^−1 PTX) or Taxol 5.00 mg kg^−1; for Tmax / AUCINF_obs / AUClast / Cmax: plasma. The procedure: Post injection, ∼200 μL blood samples were drawn from the jugular vein at predetermined time points of 0.033, 0.083, 0.25, 0.5, 1, 2, 4, 6, 8, 12, and 24 h post-injection and centrifuged immediately at 3000 rpm for 10 min at 4 °C. […] 200 μL of deionized water was added into the 40 μL supernatants followed by vortexing for 1 min. Finally, the pharmacokinetic data analysis was performed via a liquid chromatography-tandem mass spectrometry (LC-MS/MS Applied Biosystems. Foster City, CA, USA) and pharmacokinetic parameters were acquired by Winnolin 7.0 software.

Data set [2] in a line: Tissue distribution in MDA-MB-231 tumor-bearing nude mice.
Protocol: Mice were sacrificed and the tumors and main organs were harvested at 1, 4, 8, and 24 h after administration. Each tissue sample was homogenized in 1 mL acetonitrile and centrifugated.
The subject of another data set is HCT116 cells. Kind of data set: cells. Conditions: Homo sapiens, HCT-116. How it is done:
(§1) Dose-effect curves were constructed and IC50 values were calculated by GraphPad Prism6/SPSS Software.

A further data set relates to MDA-MB-231 cells. Put plainly: cells. To be noted: Homo sapiens. How it is done:
as §1

[3] abbreviates: i.v. NPPA-PTX NPs 6.04 mg kg^−1 or Taxol 5.00 mg kg^−1, mean ± SEM, n = 3.

`CC(=O)OC1C(=O)C2(C)C(O)CC3OCC3(OC(C)=O)C2C(OC(=O)c2ccccc2)C2(O)CC(OC(=O)C(OC(=O)CCc3ccccc3[N+](=O)[O-])C(NC(=O)c3ccccc3)c3ccccc3)C(C)=C1C2(C)C` (centres unmarked) [NPPA-PTX, 3-(2-nitrophenyl) propionic acid-paclitaxel]: the Tmax in data set [1] (mean ± SEM, n = 3) is 2 ± 0 min. In addition, in data set [1] (setting [3]), the Cl_obs was 33.17 ± 16.4 mL/min/kg, the HL_Lambda_z is recorded as 7.45 ± 0.915 h, the “MRTINF_obs (mean residence time)” value came out at 3.90 ± 0.656 h and the MRTlast came out at 2.91 ± 0.280 h. In data set [1] (setting [3]), the “Vz_obs (apparent distribution volume)” value was 20,700 mL kg^−1 and 20,700 ± 9320 mL kg^−1; the AUCINF_obs came out at 3930 ± 2710 ng·h/mL; the AUClast came out at 3810 ± 2640 ng·h/mL; the highest concentration (Cmax) is 4580 ± 2140 ng/mL. The AUC tissue/plasma in data set [2] (Heart) is 0.65. Moreover, the AUC tissue/plasma in data set [2] (Kidney) was 0.79. This compound also returned an AUC tissue/plasma in data set [2] (Liver) of 3.17. In data set [2] (Lung), this compound displayed an AUC tissue/plasma of 0.55. Also, the AUC tissue/plasma in data set [2] (Spleen) is recorded as 0.35. The compound further registered an AUC tissue/plasma in data set [2] (plasma) of 1.00. In data set [2] (tumor), this compound returned an AUC tissue/plasma of 0.45.

Turning to `CC(=O)O[C@H]1C(=O)[C@@]2(C)[C@H]([C@H](OC(=O)c3ccccc3)[C@]3(O)C[C@H](OC(=O)[C@H](O)[C@@H](NC(=O)c4ccccc4)c4ccccc4)C(C)=C1C3(C)C)[C@]1(OC(C)=O)CO[C@@H]1C[C@@H]2O` [PTX, paclitaxel], the IC50 in the data set with HCT116 cells amounted to 300 ± 20 nM; in the data set on MDA-MB-231 cells, 63 ± 3.3 nM.

As for `CC(=O)OC1C(=O)C2(C)C(O)CC3OCC3(OC(C)=O)C2C(OC(=O)c2ccccc2)C2(O)CC(OC(=O)C(O)C(NC(=O)c3ccccc3)c3ccccc3)C(C)=C1C2(C)C` (centres unmarked) [PTX from Taxol], the Tmax in data set [1] (mean ± SEM, n = 3) came to 2 ± 0 min. Moreover, in data set [1] (setting [3]), the Cl_obs came out at 19.5 ± 6.63 mL/min/kg; the HL_Lambda_z is 5.86 ± 1.24 h; the MRTlast was 2.50 ± 0.545 h; the “Vz_obs (apparent distribution volume)” value is 10,300 mL kg^−1 and 10,300 ± 5480 mL kg^−1. In addition, in data set [1] (setting [3]), the AUCINF_obs came out at 4560 ± 1310 ng·h/mL, the AUClast was determined as 4480 ± 1310 ng·h/mL and the highest concentration (Cmax) worked out at 8600 ± 2500 ng/mL.

In the case of `CC(=O)OC1C(=O)C2(C)C(O)CC3OCC3(OC(C)=O)C2C(OC(=O)c2ccccc2)C2(O)CC(OC(=O)C(O)C(NC(=O)c3ccccc3)c3ccccc3)C(C)=C1C2(C)C` (centres unmarked) [PTX released from NPPA-PTX], in data set [1] (i.v.), the “MRT compared to that of PTX from Taxol” value worked out at 4 fold. Also, in data set [1] (mean ± SEM, n = 3), the Tmax came to 2 ± 0 min. Moreover, in data set [1] (setting [3]), the Cl_obs is 127.5 ± 34.17 mL/min/kg, the HL_Lambda_z amounted to 9.53 ± 5.82 h, the MRTlast stood at 7.38 ± 0.817 h and the “Vz_obs (apparent distribution volume)” value is given as 93,700 ± 26,400 mL kg^−1. In data set [1] (setting [3]), the AUCINF_obs is 837 ± 264 ng·h/mL, the AUClast stood at 695 ± 99.6 ng·h/mL and the Cmax is 99.0 ± 29.2 ng/mL. Also, the “Vz_obs (apparent distribution volume)” value in data set [1] (i.v. NPPA-PTX NPs 6.04 mg kg^−1 or Taxol 5.00 mg kg^−1, mean ± SEM, n = 3, listed as released PTX from NPPA-PTX) is listed as 93,700 mL kg^−1. Also, the “AUC0–24h in plasma compared with PTX from Taxol” value in data set [2] (plasma) is listed as “lower values (about three tenths)”. In addition, the “AUC0–24h in tumor compared with PTX from Taxol” value in data set [2] (tumor) is reported as “equivalent values”.

In general, Tmax refers to the time at which the peak concentration occurs. For orientation: Cmax means the maximum level reached in the sampled fluid or tissue. In general, IC50 refers to the midpoint of a concentration-inhibition curve. A high value points to a need for much substance.
